Measured values: patent US10597388B2, “Pyridazinone herbicides” (FMC CORPORATION, priority 2014, dated 2020)

Assays:
Experiment in all cases: Test E greenhouse herbicide test, pre- and postemergence
Type in all cases: in vivo
[1] = test system: Italian ryegrass (Lolium multiflorum)
Method in brief: (§1)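 Visual ratings, 0 for no effect up to 100 for complete control, were taken relative to controls 14 to 21 d after greenhouse treatment. Applications used a surfactant-containing non-phytotoxic solvent formulation, sprayed either preemergence on silt loam-sown seed or postemergence on 1- to 4-leaf plants 2-18 cm tall in peat-based potting medium.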

[2] = test system: barnyardgrass (Echinochloa crus-galli)
Method in brief: as §1

[3] = test system: beggarticks (hairy beggarticks, Bidens pilosa)
Method in brief: as §1

corn (Zea mays) = test system: corn (Zea mays)
Method in brief: as §1

[4] = test system: crabgrass, large (large crabgrass, Digitaria sanguinalis); conditions: Preemergence
Method in brief: as §1

[5] = test system: dayflower (Virginia (VA) dayflower, Commelina virginica)
Method in brief: as §1

[6] = test system: field bindweed (Convolvulus arvensis)
Method in brief: as §1

[7] = test system: goosegrass (Eleusine indica); conditions: Preemergence
Method in brief: as §1

[8] = test system: momingglory (Ipomoea coccinea); conditions: Preemergence
Method in brief: as §1

[9] = test system: nightshade (eastern black nightshade, Solanum ptycanthum); conditions: Preemergence
Method in brief: as §1

[10] = test system: panicum, fall (fall panicum, Panicum dichotomiflorum)
Method in brief: as §1

[11] = test system: surinam grass (Brachiaria decumbens); conditions: Preemergence
Method in brief: as §1

[12] = 62 g ai/ha, Preemergence, scale 0 to 100 (0 no effect, 100 complete control)
[13] = 125 g ai/ha, Preemergence, scale 0 to 100 (0 no effect, 100 complete control)
[14] = Preemergence, 31 g ai/ha, scale 0 to 100, 0 no effect, 100 complete control
[15] = Preemergence, 250 g ai/ha, visual, scale 0 no effect to 100 complete control
[16] = Preemergence, 125 g ai/ha, visual, scale 0 no effect to 100 complete control
[17] = 62 g ai/ha, scale 0 to 100 (0 no effect, 100 complete control)
[18] = 31 g ai/ha, scale 0 to 100, 0 no effect, 100 complete control
[19] = 125 g ai/ha, visual, scale 0 no effect to 100 complete control
[20] = 250 g ai/ha, visual, scale 0 no effect to 100 complete control
[21] = 125 g ai/ha, scale 0 to 100 (0 no effect, 100 complete control)
[22] = 62 g ai/ha, Postemergence, scale 0 to 100 (0 no effect, 100 complete control)
[23] = 125 g ai/ha, Postemergence, scale 0 to 100 (0 no effect, 100 complete control)
[24] = 250 g ai/ha, Postemergence, scale 0 to 100 (0 no effect, 100 complete control)
[25] = Postemergence, 31 g ai/ha, visual, scale 0 no effect to 100 complete control

CCOC(=O)Oc1c(C)nn(C)c(=O)c1-c1c(CC)ccc2ccccc12 [Compound 37]
98: Plant response rating, Beggarticks [3, 12] | Plant response rating, Beggarticks [3, 16] | Plant response rating, Nightshade [9, 21] | Plant response rating, Nightshade [9, 20]
15: Plant response rating, Morningglory [8, 18]
65: Plant response rating, Morningglory [8, 20]
85: Plant response rating, Ryegrass, Italian [1, 14] | Plant response rating, Field Bindweed [6, 16]
90: Plant response rating, Crabgrass, Large [4, 20] | Plant response rating, Field Bindweed [6, 12] | Plant response rating, Nightshade [9, 18] | Plant response rating, Panicum, Fall [10, 14] | Plant response rating, Surinam Grass [11, 20]
5: Plant response rating, Dayflower, VA [5, 12]
0: Plant response rating, Barnyardgrass [2, 12] | Plant response rating, Barnyardgrass [2, 14] | Plant response rating, Barnyardgrass [2, 16] | Plant response rating, Corn (corn (Zea mays); [12]) | Plant response rating, Corn (corn (Zea mays); [14]) | Plant response rating, Corn (corn (Zea mays); [16]) | Plant response rating, Corn (corn (Zea mays); [15]) | Plant response rating, Dayflower, VA [5, 14]
40: Plant response rating, Dayflower, VA [5, 16] | Plant response rating, Morningglory [8, 17]
95: Plant response rating, Ryegrass, Italian [1, 12]
75: Plant response rating, Crabgrass, Large [4, 17] | Plant response rating, Field Bindweed [6, 14] | Plant response rating, Goosegrass [7, 19] | Plant response rating, Surinam Grass [11, 17] | Plant response rating, Surinam Grass [11, 21]
100: Plant response rating, Ryegrass, Italian [1, 13] | Plant response rating, Ryegrass, Italian [1, 15] | Plant response rating, Beggarticks [3, 15] | Plant response rating, Field Bindweed [6, 15] | Plant response rating, Panicum, Fall [10, 12] | Plant response rating, Panicum, Fall [10, 13] | Plant response rating, Panicum, Fall [10, 15]
60: Plant response rating, Dayflower, VA [5, 15]
30: Plant response rating, Barnyardgrass [2, 15]
35: Plant response rating, Goosegrass [7, 17] | Plant response rating, Goosegrass [7, 18]
50: Plant response rating, Crabgrass, Large [4, 18] | Plant response rating, Morningglory [8, 21] | Plant response rating, Surinam Grass [11, 18]
80: Plant response rating, Beggarticks [3, 14] | Plant response rating, Crabgrass, Large [4, 19] | Plant response rating, Goosegrass [7, 20] | Plant response rating, Nightshade [9, 17]

CCOC(=O)Oc1c(C)nn(C)c(=O)c1-c1c(C)sc2c(C)cc(C)cc12 [Compound 83]
80: Plant response rating, Ryegrass, Italian [1, 23] | Plant response rating, Ryegrass, Italian [1, 14] | Plant response rating, Panicum, Fall [10, 23]
65: Plant response rating, Dayflower, VA [5, 15] | Plant response rating, Surinam Grass [11, 18]
25: Plant response rating, Dayflower, VA [5, 13] | Plant response rating, Goosegrass [7, 20] | Plant response rating, Morningglory [8, 18]
60: Plant response rating, Ryegrass, Italian [1, 22] | Plant response rating, Ryegrass, Italian [1, 25] | Plant response rating, Dayflower, VA [5, 22] | Plant response rating, Field Bindweed [6, 25] | Plant response rating, Surinam Grass [11, 17]
50: Plant response rating, Barnyardgrass [2, 22] | Plant response rating, Barnyardgrass [2, 24] | Plant response rating, Dayflower, VA [5, 25] | Plant response rating, Nightshade [9, 17]
35: Plant response rating, Barnyardgrass [2, 13] | Plant response rating, Field Bindweed [6, 13] | Plant response rating, Nightshade [9, 18]
85: Plant response rating, Ryegrass, Italian [1, 24] | Plant response rating, Surinam Grass [11, 21]
95: Plant response rating, Ryegrass, Italian [1, 12] | Plant response rating, Morningglory [8, 21] | Plant response rating, Panicum, Fall [10, 12] | Plant response rating, Surinam Grass [11, 20]
90: Plant response rating, Panicum, Fall [10, 24] | Plant response rating, Panicum, Fall [10, 14]
75: Plant response rating, Barnyardgrass [2, 15] | Plant response rating, Dayflower, VA [5, 23] | Plant response rating, Field Bindweed [6, 24]
70: Plant response rating, Dayflower, VA [5, 24] | Plant response rating, Field Bindweed [6, 22] | Plant response rating, Field Bindweed [6, 23] | Plant response rating, Panicum, Fall [10, 22] | Plant response rating, Panicum, Fall [10, 25]
0: Plant response rating, Barnyardgrass [2, 14] | Plant response rating, Corn (corn (Zea mays); [22]) | Plant response rating, Corn (corn (Zea mays); [12]) | Plant response rating, Corn (corn (Zea mays); [23]) | Plant response rating, Corn (corn (Zea mays); [13]) | Plant response rating, Corn (corn (Zea mays); [25]) | Plant response rating, Corn (corn (Zea mays); [14]) | Plant response rating, Corn (corn (Zea mays); [15]) | Plant response rating, Crabgrass, Large [4, 18] | Plant response rating, Dayflower, VA [5, 14] | Plant response rating, Field Bindweed [6, 14] | Plant response rating, Goosegrass [7, 17] | Plant response rating, Goosegrass [7, 18]
40: Plant response rating, Barnyardgrass [2, 23] | Plant response rating, Barnyardgrass [2, 25] | Plant response rating, Crabgrass, Large [4, 21]
10: Plant response rating, Corn (corn (Zea mays); [24]) | Plant response rating, Dayflower, VA [5, 12]
30: Plant response rating, Barnyardgrass [2, 12]
100: Plant response rating, Ryegrass, Italian [1, 15] | Plant response rating, Beggarticks [3, 22] | Plant response rating, Beggarticks [3, 12] | Plant response rating, Beggarticks [3, 23] | Plant response rating, Beggarticks [3, 13] | Plant response rating, Beggarticks [3, 24] | Plant response rating, Beggarticks [3, 14] | Plant response rating, Beggarticks [3, 15] | Plant response rating, Field Bindweed [6, 15] | Plant response rating, Morningglory [8, 20] | Plant response rating, Nightshade [9, 21] | Plant response rating, Nightshade [9, 20] | Plant response rating, Panicum, Fall [10, 13]
5: Plant response rating, Crabgrass, Large [4, 17] | Plant response rating, Field Bindweed [6, 12] | Plant response rating, Goosegrass [7, 21]
98: Plant response rating, Ryegrass, Italian [1, 13] | Plant response rating, Beggarticks [3, 25] | Plant response rating, Panicum, Fall [10, 15]
20: Plant response rating, Crabgrass, Large [4, 20] | Plant response rating, Morningglory [8, 17]
